Activity calls are given as the source filed them. No rule for the calls is given here.
Tested on: Trypanosoma brucei growth inhibition, luminescence
Assay: Trypanosoma brucei growth inhibition, luminescence (AID 1159562);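 also: parasites grew with compound for 24 h before the luminescence read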

| IC50 | Structure (SMILES) |
| --- | --- |
| 160 nM | CCN(CC)S(=O)(=O)c1ccc(C)c(NC(=O)c2cc(Cl)c3c(c2)OCO3)c1 |
| 790 nM | O=C(O)[C@H]1C[C@@H]1c1ccc(-c2ccc(CN(CCc3ccccn3)C(=O)C3CCC3)cc2)cc1 |
| > 40000 nM (inactive) | O=C(Nc1cccc(Cl)c1)N1CCCCC1c1cccnc1 (stereo not drawn) |
| 250 nM | COc1cccc2sc(CN(C)C(=O)C3CNCCN3c3ccc(F)cc3)c(C)c12 (stereo not drawn) |
| 630 nM | O=C(NCc1ccc(Cl)cc1)C1CN(C(=O)c2ccc(F)cc2)CCS1 (stereo not drawn) |
| 1600 nM | Oc1c(-c2n[nH]c(CCc3ccccc3)n2)ncc2cccnc12 |
| 1600 nM | Cc1ccccc1CNc1cc(C2CC2)nc(-c2nccn2C)n1 |
| 1300 nM | CCCc1cc(C(=O)Nc2ncc(-c3cccc(Br)c3)n2C)n[nH]1 |
| 630 nM | CCS(=O)(=O)c1cccc(C(=O)Nc2nc(-c3ccccn3)cs2)c1 |
| 40000 nM | COc1ccc2nc(N(Cc3cccnc3)C(=O)C3CCC3)sc2c1 |
| 2500 nM | CCOc1ccc2nc(NC(=O)c3ccc([N+](=O)[O-])s3)sc2c1 |
| 32000 nM | N#Cc1cc(N2CCCC2=O)ccc1Sc1ccccc1CO |
| 10000 nM | Cc1cccc(NS(=O)(=O)c2ccc3c(c2)C(=O)c2cc(S(=O)(=O)Nc4cccc(C)c4C)ccc2-3)c1C |
| 100 nM | CC(C)C[C@H](NC(=O)c1csc(-c2cccs2)n1)C(=O)NC1(C#N)CC1 |
| > 40000 nM (inactive) | CC1CN(Cc2ccc(C#N)cc2)CCN1c1ccc(NC(=O)c2ccccc2F)cc1 (stereo not drawn) |
| 200 nM | Cc1ncsc1CNc1cnc(-c2ccc3c(c2)OCCO3)c(-c2cnn(C)c2)c1 |
| > 40000 nM (inactive) | Cc1cccnc1CN1CCN(CCCOc2ccc(-c3ccc(C(N)=O)cc3)cc2)CC1 |
| 16000 nM | COCCn1c(-c2ccccc2)cnc1NCc1ccccc1OC |
| > 40000 nM (inactive) | COc1cc2c(cc1OC)[C@H]1[C@@H](C)c3ccc(OC)c(OC)c3CN1CC2 |
| 200 nM | O=C(NCCc1csc(-c2ccc(F)cc2)n1)c1cccs1 |
| > 40000 nM (inactive) | CC(=Cc1ccccc1)CN1CCC(=O)N(Cc2cccnc2)CC1 |
| 10000 nM | NC(=O)c1ccccc1Nc1nc(NC2CCCCC2)nc2[nH]ccc12 |
| 500 nM | COc1ncc(-c2ccc3ncnc(N4CCOCC4)c3c2)cc1NS(C)(=O)=O |
| 320 nM | CN(Cc1nc2ccc(C(=O)NCC3CCCCC3)cc2[nH]1)C1CCCc2cccnc21 (stereo not drawn) |
| 3200 nM | O=C(Nc1cccc(Cl)c1)Nc1ccc([N+](=O)[O-])cc1Cl |

| IC50 | Structure (SMILES) |
| --- | --- |
| > 40000 nM (inactive) | CCN(Cc1cccs1)C(=O)CSc1nnc(-c2ccc3c(c2)OCO3)o1 |
| 16000 nM | Cn1nccc1-c1cc(OC(CN)c2ccccc2)cnc1-c1ccco1 (stereo not drawn) |
| 4000 nM | CN(C)CCN(C)Cc1ccc(Cl)cc1NS(=O)(=O)c1ccc(Cl)c(Cl)c1 |
| 500 nM | COc1cc(Nc2nccc(Nc3onc(C)c3C)n2)cc(S(=O)(=O)C2CCOCC2)c1 |
| 63 nM | Cc1cc(Nc2cc(C3CC3)[nH]n2)nc(N2CCCC2)n1 |
| > 40000 nM (inactive) | c1ccc(CCNCc2cncc3nc(-c4cnccn4)n(C4CCCCC4)c23)cc1 |
| 100 nM | NC(N)=Nc1nc(-c2ccc(NC(N)=NCCN3CCCC3)cc2)cs1 |
| 6300 nM | c1ccc(-c2nc(NCc3ccco3)c3ccccc3n2)nc1 |
| 500 nM | COc1ccc2nccc([C@H](O)CN3CC[C@H](NC(=O)c4ccc(Br)cc4)[C@@H](O)C3)c2n1 |
| 6300 nM | Cn1nc(C(=O)N2CCc3ccccc32)c2c1CCS(=O)(=O)C2 |
| 790 nM | Cc1[nH]nc(C(F)(F)F)c1NC(=O)CCn1cc(Cl)c([N+](=O)[O-])n1 |
| > 40000 nM (inactive) | Cc1ccc(NC(=O)C(C)n2nc([N+](=O)[O-])c(Br)c2C)cc1Cl (stereo not drawn) |
| 790 nM | CCc1cccc(CC)c1-n1c(SCC(=O)NC(=O)NCc2ccco2)nnc1-c1cccnc1 |
| 16000 nM | Cc1ccc(C)c(-n2nnnc2Sc2nc([N+](=O)[O-])nn2C)c1 |
| 40000 nM | C=CCN(Cc1cccs1)C(=O)CSc1nnc(-c2ccc3c(c2)OCO3)o1 |
| 630 nM | NC(=O)c1cc(F)ccc1Nc1nc(NC2CCC(O)CC2)ncc1Cl (stereo not drawn) |
| > 40000 nM (inactive) | O=C(NCCNc1noc(-c2ccc([N+](=O)[O-])cc2)n1)c1ccc(Cl)cc1 |
| 400 nM | O=C(NCc1nnc2n1CCCCC2)c1csc(-c2ccccc2)n1 |
| 500 nM | O=S1N=C(NCCCN(Cc2ccc(F)cc2)c2ccccn2)C(NCc2ccncc2)=N1 (stereo not drawn) |
| 16000 nM | CCc1nn(-c2ncc(F)c(NC(C)C)n2)c(N)c1C1CCCCC1 |
| 250 nM | COc1ccc(C(=O)Nc2ccc(NC(=O)CO)cc2)cc1 |
| 500 nM | CCOc1ccc(CC(=O)N2c3ccccc3CC2C(=O)NC)cc1 (stereo not drawn) |
| 10000 nM | Cc1ccc(NC(C)C(=O)Nc2ccc(C#N)cc2)cc1S(=O)(=O)N1CCCCC1 (stereo not drawn) |
| 500 nM | CCC(CC)C(=O)Nc1ccc(-c2nnc(-c3ccc(OC)cc3)o2)cc1 |
| > 40000 nM (inactive) | Cc1ccc(S(=O)(=O)Cn2nnnc2C(c2cccnc2)N2CCN(c3ccccc3)CC2)cc1 (stereo not drawn) |

| IC50 | Structure (SMILES) |
| --- | --- |
| > 40000 nM (inactive) | O=S(=O)(NCC(c1cccnc1)N1CCN(c2ccccc2F)CC1)c1ccc(F)cc1 (stereo not drawn) |
| 20000 nM | O=C(CN(Cc1ccccn1)Cc1ccccn1)NCc1ccc2c(c1)OCO2 |
| 250 nM | CC(C)S(=O)(=O)c1ccc(-c2cnc(N)c3cc(-c4ccnc(N)n4)ccc23)cc1 |
| > 40000 nM (inactive) | NC(=O)c1cc(NC(=O)c2ccccc2COc2ccccc2)ccc1Cl |
| 5000 nM | CN(C)CCN(C)Cc1ccc(F)cc1NS(=O)(=O)c1ccc(Cl)c(Cl)c1 |
| > 40000 nM (inactive) | COCc1cc(Nc2ccc(Cl)cc2)nc(-c2ccccn2)n1 |
| 160 nM | Cc1cc(NC(=O)C2CCCCC2)n(-c2nc3c(c(=O)[nH]2)CCC3)n1 |
| 7900 nM | O=C(CN(Cc1ccccn1)Cc1ccccn1)NCc1ccc(-c2csnn2)cc1 |
| 10000 nM | Cc1nc2c(-c3ncn[nH]3)cc(NC(=O)Cc3ccccc3)cn2c1C |
| 500 nM | O=C(Nc1ccccc1C(=O)Nc1ccccn1)c1ccco1 |
| 3200 nM | COc1ccc(S(=O)(=O)NCc2ccc(-c3ccc(CN(C)CCO)cc3)cc2)cc1 |
| 320 nM | Cc1cc(=O)n2nc(Oc3ccc(C#N)cc3Cl)sc2n1 |
| 100 nM | Cc1cc(Br)sc1CNCCCNc1cc(=O)c2ccccc2[nH]1 |
| > 40000 nM (inactive) | CN(Cc1nnnn1C1CCN(Cc2ccc(-n3ccnc3)cc2)CC1)c1ccc(F)cc1F |
| 25000 nM | CC(=O)Nc1ccc(-c2noc(CC3CCCN(Cc4cccc(F)c4C)C3)n2)cc1 (stereo not drawn) |
| 790 nM | NCc1csc(Nc2cc(Oc3ccccc3)ncn2)n1 |
| 630 nM | CCC(CC)C(=O)Nc1cccc(C(=O)Nc2nnc(C3CCCCC3)s2)c1 |
| 250 nM | Cc1[nH]nc(Nc2ccnc3[nH]ccc23)c1C |
| > 40000 nM (inactive) | COc1cc(-c2nc(N3CCOCC3)sc2-c2ccnc(NC3CCOCC3)n2)ccc1Cl |
| > 40000 nM (inactive) | O=C1CN(C2CCCc3c(OCc4ccncc4)cccc32)C(=O)N1C1CCCCC1 (stereo not drawn) |
| 10000 nM | COc1ccc(-c2cnc(NC(=O)c3cc(-c4ccccn4)n[nH]3)n2C)cc1 |
| 250 nM | CNC(=O)C1Cc2ccccc2N1C(=O)Cc1ccc(F)cc1 (stereo not drawn) |
| 790 nM | COc1ccc(NC(=O)c2ccc(NC(=O)CN(c3ccccc3C)S(C)(=O)=O)cc2)cc1 |
| > 40000 nM (inactive) | COc1ccc(C2=NCC(CSc3nnc(-c4ccc5c(c4)OCO5)o3)S2)cc1 (stereo not drawn) |
| 3200 nM | COc1ccc(-c2cnc(NC(=O)c3ccc(F)cc3)n2C)cc1 |

| IC50 | Structure (SMILES) |
| --- | --- |
| 790 nM | C[C@@H](Oc1cc(-n2cnc3ccc(CC(O)CO)cc32)sc1C(N)=O)c1ccccc1Cl (stereo partly drawn) |
| 1000 nM | COc1ncc(-c2ccc3nccc(-c4ccncc4)c3c2)cc1NS(C)(=O)=O |
| 32000 nM | COc1ccc(-c2nc3ccncc3c(=O)n2CCOc2ccccc2)cc1 |
| 400 nM | Cc1nn2c(NCCCO)c3c(nc2c1-c1cccs1)CCC3 |
| 63 nM | Cc1ccc(NC(=O)c2ccnc(N3CCCC3)c2)cc1-c1ccsc1C(N)=O |
| 790 nM | COc1ccc(C2CC(c3ccccc3Cl)=NN2C(=O)CNC(=O)C2CCCC2)cc1 (stereo not drawn) |
| 20 nM | O=C1OCc2ccc(Nc3nccc(-c4cnn5ncccc45)n3)cc21 |
| > 40000 nM (inactive) | CCOc1ccccc1C(=O)Nc1nnc(-c2ccc3c(c2)OCO3)s1 |
| 25000 nM | COc1ccc(C2CC(c3ccc(NS(C)(=O)=O)cc3)=NN2C(=O)c2cccs2)cc1OC (stereo not drawn) |
| 1600 nM | NC(=O)c1ccsc1NC(=O)c1ccc([N+](=O)[O-])s1 |
| 25000 nM | COCCn1c(-c2ccc3c(c2)OCO3)cnc1NCc1ccccc1OC |
| 1000 nM | COC(=O)c1ccc(-c2cnc3ccc(NCc4ccccn4)nn23)cc1 |
| 630 nM | O=C(Nc1nc(-c2ccccn2)cs1)c1ccc(S(=O)(=O)N2CCCCC2)cc1 |
| 400 nM | Cc1cc(Oc2cc(Cl)c(Cl)cc2Cl)n2ncnc2n1 |
| 4000 nM | CCc1cc(C(=O)Nc2nccn2-c2ccccc2)cs1 |
| 2000 nM | Cc1ccc(CNC2CCN(C[C@@H]3Cn4c(=O)ccc5ccc(=O)n3c54)CC2)cc1F |
| 790 nM | O=C(CC1(O)C(=O)N(Cc2ccccc2)c2ccc(Br)cc21)c1cccnc1 (stereo not drawn) |
| 13000 nM | Cc1cc(C)n(-c2nc(NC(C)C)nc(NC(C)(C)C)n2)n1 |
| 20000 nM | COc1ccc(-c2cc(C)no2)cc1S(=O)(=O)Nc1ccc(C)c(C)c1 |
| 7900 nM | COc1ccc(NS(=O)(=O)c2cc(NC(=O)Cc3ccc(C)cc3)ccc2N2CCOCC2)cc1 |
| > 40000 nM (inactive) | O=C(NC1C(=O)N(c2ccccc2)C1c1cccnc1)c1ccc(Cl)s1 (stereo not drawn) |
| > 40000 nM (inactive) | COc1ccc(C(=O)N2CCC(Nc3cccnc3)C2)c(OC)n1 (stereo not drawn) |
| 790 nM | CS(=O)(=O)c1ccc(Nc2nccc(Nc3n[nH]c4ccc(F)cc34)n2)c(F)c1 |
| 25000 nM | CCN(CC)c1ccc(S(=O)(=O)N(CC)CC)c2nonc12 |
| > 40000 nM (inactive) | CC(C)Oc1cccc(N2CCC(C(=O)N3CCCN(C(C)C)CC3)CC2)c1 |

| Structure (SMILES) | IC50 |
| --- | --- |
| CC(C)N(C(=O)CN1C(=O)C(N)C(=O)N(c2ccccc2)c2ccccc21)c1ccccc1 (stereo not drawn) | > 40000 nM (inactive) |
| CNC(=O)Oc1ccc(C(=O)NCc2ccccc2)cc1OC(=O)NC | 400 nM |
| CN1CCC(N(C)c2nccc(N3CCN(C(=O)c4cccc(-c5cccnc5)c4)CC3)n2)CC1 | 1000 nM |

Reference: PubChem BioAssay AID1159562 (GlaxoSmithKline (GSK), 2015)
